Tests used:
[1] = tested on: myocardial infarction in adult rats; test: Vessel density in the scar area after myocardial infarction; type: in vivo, rat; conditions: rats after MI
Protocol: (§1) To determine whether p38 inhibition/FGF1 stimulation can induce cardiomyocyte proliferation in vivo and whether it has a positive effect on cardiac function after cardiac injury we created myocardial infarctions (MI) in adult rats (250 g) by coronary artery ligation. The p38 inhibitor SB203580 HCl or its vehicle, saline, were injected intraperitoneal every three days for the first month of the study. FGF1 or its carrier BSA was injected mixed with self-assembling peptides once into the infarct border zone immediately after coronary artery ligation. We injecting a total of 80 μl of 400 ng/ml FGF1, given at 3 different injection sites, into 400 mg of infarcted myocardium estimated to deliver a FGF 1 concentration to the cardiomyocytes of approximately 50 to 100 ng/ml. Animals were analyzed 24 hours, 2 weeks, and 3 month after surgery. […]
One possible explanation is the angiogenic effect of FGF1. To determine the effect of our treatments on vascularization we determined the vessel density in the scar area. […]
Hearts were embedded in tissue-freezing medium (Fisher) without fixation, frozen in 2-methylbutane (cooled in liquid nitrogen), stored at −80° C., and finally sectioned (20 μm; Leica 3050S). […] Immune complexes were detected with ALEXA 488-, or ALEXA 594-conjugated secondary antibodies (1:400; Molecular Probes). […]

[2] = tested on: myocardial infarction in adult rats; test: Scar volume (trichrome stain) after myocardial infarction; type: in vivo, rat
Protocol: as §1
To determine if p38 inhibition and FGF1 stimulation have an effect on infarct size we determined scar volume using trichrome stain. […]
Scar formation was determined as fibrotic area/(fibrotic+non-fibrotic area) based on all sections. The thinning index is a ratio of the amount of wall thinning in the infarct normalized to the thickness of the septum and is calculated by dividing the minimal infarct wall thickness with maximal septal wall thickness (2 weeks: section 1 to 4, 3 month: section 1 to 6 from base).

## FGF1: growth factor FGF1 (R&D Systems)
[1]
  vessel density in the scar area: increases significantly
[2]; 2 weeks
  scar size (scar volume): significantly reduced
[2]; 3 month
  scar size (scar volume): significantly reduced

Reference: patent US20060281791A1, “Methods of increasing proliferation of adult mammalian cardiomyocytes through p38 map kinase inhibition” (CHILDREN'S MEDICAL CENTER CORPORATION, priority 2005, published 2006)
